According to patent US10800758B2, “Pyrimidine compound” (OTSUKA PHARMACEUTICAL CO., LTD., priority 2017, dated 2020):

Assays:
Type in all cases: in vivo
DBA/2 mice = experiment: Audiogenic seizure model; conditions: Mus musculus; male and female DBA/2 mice, 30 mg/kg oral, auditory stimulation 1 hour after administration; read-out: Seizure suppression rate (%)
Experimental: The animal model used in this test is a phenotype model for partial seizure (including secondary generalized seizure) and generalized tonic-clonic seizure, and has high clinical predictability. This test was performed in accordance with the report of De Sarro et al (Br J Pharmacol. 1988 February; 93(2): 247-56. Anticonvulsant effects of some calcium entry blockers in DBA/2 mice. De Sarro G B, Meldrum B S, Nistico G.).
In this test example, the example compounds shown in Table 3 below were used as test compounds. The following compound (compound of Example 5 of WO 2004/009559), which is the most similar compound when the substituent position is taken into consideration, was used as a comparative example compound.
The test compounds were suspended in 5% gum arabic/distilled water (w/v), and administered by forced oral administration to male and female DBA/2 mice (Japan SLC, Inc., 3 weeks old, 8 per group) at a dose of 30 mg/kg. After one hour of the oral administration of the test compound, each mouse was placed in a transparent acrylic cylinder 30 cm high and 23 cm in diameter, and 30 seconds were allowed for habituation. Then, they were exposed to auditory stimulation (12.6 kHz, 100-110 dB) for 1 minute or until a tonic seizure occurred.
The seizure response was assessed using the following scale, 0: no seizure, 1: wild running, 2: clonic seizure, 3: tonic seizure and 4: respiratory arrest. The maximum response was recorded as the seizure severity score.
The seizure suppression rate for each compound administration group was calculated according to the following formula.

ICR mice [1] = experiment: Maximal electroshock seizure (MES) model; conditions: Mus musculus; male ICR mice, 30 mg/kg oral, electrical stimulation (30 mA, 100 Hz, 0.2 second) 1 hour after administration; read-out: rate of seizure suppression (tonic hindlimb extension seizure)
Experimental: This test is performed to evaluate the anticonvulsant activity of the compound. The mouse model used in this test is a phenotype model of generalized tonic-clonic seizure and secondary generalized partial seizure. This test was performed in accordance with the report of AJ Hill et al (Br J Pharmacol. 2012 December; 167(8): 1629-42. Cannabidivarin is anticonvulsant in mouse and rat, Hill A J, et al.).
The test compound was suspended in 5% gum arabic/distilled water (w/v), and administered by forced oral administration to male ICR mice (Japan SLC, Inc., 5 to 6 weeks old, 8 per group) at a dose of 30 mg/kg. After one hour of the oral administration of the test compound, the mice were stimulated by an application of electrical current (30 mA, 100 Hz, 0.2 second) through auricular electrodes using an electroconvulsive device (UGO BASILE SRL). Then, the incidence of tonic hindlimb extension seizure was recorded. In this test, tonic hindlimb extension seizures were induced in all mice of the solvent administration group, but the rate of seizure suppression was 75% or more with the example compounds 1, 2, 3, 5, 8, 10, 12, 13, 14, 16, 18, 22, 26, 28, 30, 31, 38, 42, 47, 48 and 54, and the suppression rate was 50% or more with the example compounds 4, 6, 9, 11, 23, 41 and 45.

ICR mice [2] = experiment: Subcutaneous pentylenetetrazole (scPTZ) model; conditions: Mus musculus; male ICR mice, 30 mg/kg oral, 85 mg/kg pentylenetetrazole s.c. after 1 hour, evaluated for 30 minutes; read-out: rate of suppression against clonic convulsions
Experimental: This test is performed to evaluate the anticonvulsant activity of the compound as in Test Example 2. Unlike the phenotype of Test Example 2, the animal model used in this test is a phenotype model of generalized absence seizure and myoclonic seizure.
The test compound was suspended in 5% gum arabic/distilled water (w/v), and administered by forced oral administration to male ICR mice (Japan SLC, Inc., 5 to 6 weeks old, 10 per group) at a dose of 30 mg/kg. After 1 hour, 85 mg/kg of pentylenetetrazole dissolved in saline was administered subcutaneously, and the occurrence of clonic convulsions was evaluated for 30 minutes.

SMILES	inhibition in vivo at 30 mg/kg (DBA/2 mice)	responders at 30 mg/kg (ICR mice [1])	responders at 30 mg/kg (ICR mice [2])
Cc1cccc(Oc2ncc(N3CCC(=O)NC3=O)cn2)c1 [Example 22]	100%	≥ 75%	≥ 75%
O=C1CCN(c2cnc(Oc3cccc(OC(F)(F)F)c3)nc2)C(=O)N1 [Example 10]	86%	≥ 75%	–
O=C1CCN(c2cnc(Oc3ccccc3)nc2)C(=O)N1 [Example 1, 1-(2-Phenoxypyrimidin-5-yl)-5,6-dihydropyrimidine-2,4(1H,3H)-dione]	100%	≥ 75%	≥ 75%
Cc1cc(C)cc(Oc2ncc(N3CCC(=O)NC3=O)cn2)c1 [Example 37]	77%	–	–
O=C1CCN(c2cnc(Oc3cccc(C(F)(F)F)c3)nc2)C(=O)N1 [Example 9]	94%	≥ 50%	–
COc1nc(Oc2ccccc2)ncc1N1CCC(=O)NC1=O [Example 18]	100%	≥ 75%	–
O=C1CCN(c2cnc(Oc3cccc(F)c3)nc2)C(=O)N1 [Example 3, 1-[2-(3-Fluorophenoxy)pyrimidin-5-yl]-5,6-dihydropyrimidine-2,4(1H,3H)-dione]	100%	≥ 75%	≥ 75%
O=C1CCN(c2ccccc2)C(=O)N1 [Comparative Example, reference compound]	27%	–	–
O=C1CCN(c2cnc(Oc3cc(F)cc(F)c3)nc2)C(=O)N1 [Example 14]	92%	≥ 75%	≥ 75%
COc1nc(Oc2ccccc2F)ncc1N1CCC(=O)NC1=O [Example 47]	87%	≥ 75%	–
COc1nc(Oc2ccc(F)cc2)ncc1N1CCC(=O)NC1=O [Example 48]	96%	≥ 75%	–
Cc1c(F)cccc1Oc1ncc(N2CCC(=O)NC2=O)cn1 [Example 6, 1-[2-(3-Fluoro-2-methylphenoxy)pyrimidin-5-yl]-5,6-dihydropyrimidine-2,4(1H,3H)-dione]	89%	≥ 50%	–
O=C1CCN(c2cnc(Oc3ccc(F)c(F)c3)nc2)C(=O)N1 [Example 15]	83%	–	–
O=C1CCN(c2cnc(Oc3c(F)cccc3F)nc2)C(=O)N1 [Example 13]	100%	≥ 75%	≥ 75%
COc1nc(Oc2cc(F)cc(F)c2)ncc1N1CCC(=O)NC1=O [Example 54]	93%	≥ 75%	–
O=C1CCN(c2cnc(Oc3cccc(-c4ccccc4)c3)nc2)C(=O)N1 [Example 45]	92%	≥ 50%	–
O=C1CCN(c2cnc(Oc3cccc(S(F)(F)(F)(F)F)c3)nc2)C(=O)N1 [Example 24]	90%	–	–
O=C1CCN(c2cnc(-c3ccccc3)nc2)C(=O)N1 [Example 30]	97%	≥ 75%	–
O=C1CCN(c2cnc(Sc3cccc(F)c3)nc2)C(=O)N1 [Example 31]	79%	≥ 75%	–
COc1nc(Oc2ccc(F)cc2F)ncc1N1CCC(=O)NC1=O [Example 53]	83%	–	–
C[Si](C)(C)c1cccc(Oc2ncc(N3CCC(=O)NC3=O)cn2)c1 [Example 56]	82%	–	≥ 50%

SMILES	inhibition in vivo at 30 mg/kg (DBA/2 mice)	responders at 30 mg/kg (ICR mice [1])	responders at 30 mg/kg (ICR mice [2])
O=C1CCN(c2cnc(Oc3cccc(Br)c3)nc2)C(=O)N1 [Example 44]	85%	–	≥ 50%
O=c1ccn(-c2cnc(Oc3ccccc3)nc2)c(=O)[nH]1 [Example 4, 1-(2-Phenoxypyrimidin-5-yl)pyrimidine-2,4(1H,3H)-dione]	100%	≥ 50%	≥ 75%
O=C1CCN(c2cnc(Oc3ccc(F)cc3F)nc2)C(=O)N1 [Example 12]	96%	≥ 75%	≥ 50%
COc1nc(Oc2c(F)cccc2F)ncc1N1CCC(=O)NC1=O [Example 52]	93%	–	–
O=C1CCN(c2cnc(Oc3cccc(Cl)c3)nc2)C(=O)N1 [Example 26]	100%	≥ 75%	≥ 50%
O=C1CCN(c2cnc(Sc3ccccc3)nc2)C(=O)N1 [Example 8, 1-[2-(Phenylthio)pyrimidin-5-yl]-5,6-dihydropyrimidine-2,4(1H,3H)-dione]	100%	≥ 75%	–
O=C1CCN(c2cnc(Oc3cccc(SC(F)(F)F)c3)nc2)C(=O)N1 [Example 23]	100%	≥ 50%	≥ 75%
COc1nc(Oc2cccc(F)c2)ncc1N1CCC(=O)NC1=O [Example 42]	96%	≥ 75%	≥ 50%
O=C1CCN(c2cnc(Oc3ccccc3F)nc2)C(=O)N1 [Example 2, 1-[2-(2-Fluorophenoxy)pyrimidin-5-yl]-5,6-dihydropyrimidine-2,4(1H,3H)-dione]	100%	≥ 75%	≥ 75%
O=C1CCN(c2cnc(Oc3ccc(F)cc3)nc2)C(=O)N1 [Example 11]	97%	≥ 50%	≥ 75%
C#Cc1ccc(Oc2ncc(N3CCC(=O)NC3=O)cn2)cc1 [Example 50]	82%	–	–
O=C1CCN(c2cnc(Oc3ccc(Cl)cc3)nc2)C(=O)N1 [Example 40]	81%	–	–
CN1C(=O)CCN(c2cnc(Oc3cccc(F)c3)nc2)C1=O [Example 5, 1-[2-(3-Fluorophenoxy)pyrimidin-5-yl]-3-methyl-5,6-dihydropyrimidine-2,4(1H,3H)-dione]	100%	≥ 75%	≥ 75%
CC1CC(=O)NC(=O)N1c1cnc(Oc2ccccc2)nc1 (centres unmarked) [Example 16]	100%	≥ 75%	–
C#Cc1cccc(Oc2ncc(N3CCC(=O)NC3=O)cn2)c1 [Example 28]	100%	≥ 75%	≥ 75%
O=c1ccn(-c2cnc(Oc3cccc(F)c3)nc2)c(=O)[nH]1 [Example 41]	96%	≥ 50%	≥ 50%
Cc1ccc(F)cc1Oc1ncc(N2CCC(=O)NC2=O)cn1 [Example 38]	100%	≥ 75%	–
COc1cccc(Oc2ncc(N3CCC(=O)NC3=O)cn2)c1 [Example 21]	93%	–	–
CCc1cccc(Oc2ncc(N3CCC(=O)NC3=O)cn2)c1 [Example 7, 1-[2-(3-Ethylphenoxy)pyrimidin-5-yl]-5,6-dihydropyrimidine-2,4(1H,3H)-dione]	88%	–	–
[2H]C([2H])([2H])Oc1cccc(Oc2ncc(N3CCC(=O)NC3=O)cn2)c1 [Example 25]	89%	–	–
